From US20110251068A1, “PARASITIC PLANT CONTROL AGENT AND PARASITIC PLANT CONTROL METHOD” (OSAKA UNIVERSITY, priority 2008, published 2011)

How the values were obtained:
Type in all cases: in vivo
Orobanche minor [1] = experiment: Germination rate of Orobanche minor seeds in the presence of enzyme inhibitors (GR24-induced); conditions: for influence on germination of Orobanche minor: applied concurrently with GR24 0.1 mg/L, observed after four days (FIG. 8); for germination rate: Orobanche minor seeds, with GR24 0.1 mg/L, four days after application (FIG. 8)
Source text: (§1) Surfaces of seeds of Orobanche minor and Striga gesnerioides were sterilized by use of an aqueous solution containing 1% SDS and 5% sodium hypochlorite. Thereafter, the seeds were washed five times by use of sterile distilled water. Subsequently, the seeds were subjected to suction filtration and then naturally dried. GF/A glass filter paper of Φ 47 mm was spread on a laboratory dish, a GF/D glass disk of 1 cm was placed on the GF/A glass filter paper, and approximately 50 grains of the seeds were sown on the GF/D glass disk. 1.5 mL of sterile water was placed in the laboratory dish, and conditioning was carried out in a dark place at 23° C. for seven days. The GF/D glass disk was taken out of the laboratory dish on the eighth day after the beginning of conditioning and then placed on new GF/A glass filter paper. 1.5 mL of a germination stimulant GR24 (0.1 mg/L) was applied to the seeds of Orobanche minor, so as to induce its germination. A root extract of cowpea (CP) was applied to the seeds of Striga gesnerioides, so as to induce its germination. Note that concurrently with GR24 or the root extract of cowpea, nojirimycin, deoxynojirimycin, or deoxygalactonojirimycin was applied to the seeds. Note that nojirimycin is a typical β-glucosidase activity inhibitor, deoxynojirimycin is a typical α-glucosidase activity inhibitor, and deoxygalactonojirimycin is a typical galactosidase activity inhibitor. Whether or not germination occurred was observed by microscopic observation four days after application of GR24 or the root extract of cowpea (CP) and the like to the seeds.

Trifolium pratense = experiment: Selective inhibition of germination: non-parasitic plant Trifolium pratense; conditions: only nojirimycin, no germination inducer, four days (FIG. 13)
Source text: (§2) It was examined whether or not germination inhibition caused by inhibition of gentianose metabolism was a selective phenomenon with respect to a parasitic plant. Note that nojirimycin was used as a typical gentianose metabolism inhibitor. Note also that Orobanche minor and Striga gesnerioides were used as typical parasitic plants and Trifolium pratense and Arabidopsis thaliana were used as typical non-parasitic plants. The following description specifically discusses how the examination was carried out. Surfaces of seeds of Orobanche minor, Striga gesnerioides, Arabidopsis thaliana, and Trifolium pratense were sterilized by use of an aqueous solution containing 1% SDS and 5% sodium hypochlorite. Thereafter, the seeds were washed five times by use of sterile distilled water. Subsequently, the seeds were subjected to suction filtration and then naturally dried. GF/A glass filter paper of Φ 47 mm was spread on a laboratory dish, a GF/D glass disk of 1 cm was placed on the GF/A glass filter paper, and approximately 50 grains of the seeds were sown on the GF/D glass disk. 1.5 mL of sterile water was placed in the laboratory dish, and conditioning was carried out in a dark place at 23° C. for seven days. The GF/D glass disk was taken out of the laboratory dish on the eighth day after the beginning of conditioning and then placed on new GF/A glass filter paper. […]

Arabidopsis thaliana = experiment: Selective inhibition of germination: non-parasitic plant Arabidopsis thaliana; conditions: only nojirimycin, no germination inducer, four days (FIG. 13)
Source text: as §2

Orobanche minor [2] = experiment: Recovery of germination inhibition effect by addition of glucose; conditions: Orobanche minor seeds, GR24 0.1 mg/L, nojirimycin with glucose 10 mM, four days (FIG. 9)
Procedure: The following description specifically discusses how the examination was carried out. Surfaces of seeds of Orobanche minor were sterilized by use of an aqueous solution containing 1% SDS and 5% sodium hypochlorite. Thereafter, the seeds were washed five times by use of sterile distilled water. Subsequently, the seeds were subjected to suction filtration and then naturally dried. GF/A glass filter paper of Φ 47 mm was spread on a laboratory dish, a GF/D glass disk of 1 cm was placed on the GF/A glass filter paper, and approximately 50 grains of the seeds were sown on the GF/D glass disk. 1.5 mL of sterile water was placed in the laboratory dish, and conditioning was carried out in a dark place at 23° C. for seven days. The GF/D glass disk was taken out of the laboratory dish on the eighth day after the beginning of conditioning and then placed on new GF/A glass filter paper. 1.5 mL of a germination stimulant GR24 (0.1 mg/L) was applied to the seeds, so as to induce its germination. Note that concurrently with GR24, nojirimycin or a mixture of nojirimycin and glucose (glucose concentration: 10 mM) was added to the seeds. Whether or not germination occurred was observed by microscopic observation four days after application of GR24 and the like to the seeds.

Striga gesnerioides [3] = experiment: Selective inhibition of germination: parasitic plant Striga gesnerioides; conditions: with root extract of cowpea, four days (FIG. 13)
Source text: as §2

Striga gesnerioides [4] = experiment: Germination rate of Striga gesnerioides seeds in the presence of nojirimycin (induced by root extract of cowpea); conditions: for germination rate: Striga gesnerioides seeds, rate without nojirimycin taken as 100%, cowpea root extract, four days (FIG. 10)
Source text: as §1

Orobanche minor [5] = experiment: Selective inhibition of germination: parasitic plant Orobanche minor; conditions: with GR24 0.1 mg/L, four days (FIG. 13)
Source text: as §2

| influence on germination of Orobanche minor (Orobanche minor [1]) | Compound | inhibition of germination of Trifolium pratense (non-parasitic plant) (Trifolium pratense) | inhibition of germination of Arabidopsis thaliana (non-parasitic plant) (Arabidopsis thaliana) | germination recovery effect of glucose versus germination inhibition effect of nojirimycin (Orobanche minor [2]) | germination rate (Orobanche minor [1]; concentration of 1 μM) | germination rate (Orobanche minor [1]; concentration of 10 μM) | germination rate (Orobanche minor [1]; concentration of not less than 25 μM) | inhibition of germination of Striga gesnerioides (parasitic plant) (Striga gesnerioides [3]) | germination rate (Striga gesnerioides [4]; 1 μM) | germination rate (Striga gesnerioides [4]; 10 μM) | germination rate (Striga gesnerioides [4]; 50 μM) | germination rate (Striga gesnerioides [4]; 100 μM) | germination rate (Striga gesnerioides [4]; 1 mM) | influence on germination of Striga gesnerioides (Striga gesnerioides [4]; applied concurrently with root extract of cowpea, observed after four days (FIG. 10)) | inhibition of germination of Orobanche minor (parasitic plant) (Orobanche minor [5]) |
| --- | --- | --- | --- | --- | --- | --- | --- | --- | --- | --- | --- | --- | --- | --- | --- |
| no influence on germination | OC[C@H]1NC[C@H](O)[C@@H](O)[C@H]1O [deoxygalactonojirimycin] |  |  |  |  |  |  |  |  |  |  |  |  |  |  |
| no influence on germination | OC[C@H]1NC[C@H](O)[C@@H](O)[C@@H]1O [deoxynojirimycin] |  |  |  |  |  |  |  |  |  |  |  |  |  |  |
| inhibited germination | OC[C@H]1NC(O)[C@H](O)[C@@H](O)[C@@H]1O (some centres unmarked) [nojirimycin] | did not inhibit germination | did not inhibit germination | recovered by glucose | approximately 20% | approximately 10% | approximately 0% | effectively inhibited germination | approximately 24.3% | ~7.5% | ~6.2% | ~0% | ~0% | inhibited germination | effectively inhibited germination |
